Reference: PubChem BioAssay AID1918942 (Molecular Pharmacology Branch, DTP, NCI, 2023)
Where “and” joins values, the source holds several entries; their conditions need not be identical. Identical values can stand only once.

System: 743489-274-T-PDC complex spheroid viability
Test: Anticancer human tumor 743489-274-T-PDC patient-derived renal cell carcinoma cell line growth inhibition
Conditions: for viability, T/C: stronger effect = lower value
Method in brief: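 Complex spheroids of tumor cells with HUVEC and human MSCs, exposed to iadademstat combined with other agents. Each agent tested in half-log steps from near clinical Cmax (else 10 microM top), DMSO ≤0.25%.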

[1] = curve of first compound, second compound 0.1 µM
[2] = curve of first compound, second compound 0.316 µM
[3] = curve of first compound, second compound 1 µM
[4] = curve of first compound, second compound 3.16 µM
[5] = curve of first compound, second compound 10 µM
[6] = second compound 0.1 µM, first compound 0.0316 µM
[7] = second compound 0.1 µM, first compound 0.1 µM
[8] = second compound 0.1 µM, first compound 0.316 µM
[9] = second compound 0.1 µM, first compound 1 µM
[10] = second compound 0.316 µM, first compound 0.0316 µM
[11] = second compound 0.316 µM, first compound 0.1 µM
[12] = second compound 0.316 µM, first compound 0.316 µM
[13] = second compound 0.316 µM, first compound 1 µM
[14] = second compound 1 µM, first compound 0.0316 µM
[15] = second compound 1 µM, first compound 0.1 µM
[16] = second compound 1 µM, first compound 0.316 µM
[17] = second compound 1 µM, first compound 1 µM
[18] = second compound 3.16 µM, first compound 0.0316 µM
[19] = second compound 3.16 µM, first compound 0.1 µM
[20] = second compound 3.16 µM, first compound 0.316 µM
[21] = second compound 3.16 µM, first compound 1 µM
[22] = second compound 10 µM, first compound 0.0316 µM
[23] = second compound 10 µM, first compound 0.1 µM
[24] = second compound 10 µM, first compound 0.316 µM
[25] = second compound 10 µM, first compound 1 µM
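Note: spheroids exposed to compounds for 7 days before readout.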
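Throughout, for viability, T/C: 100% = DMSO vehicle control wells.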

SMILES: CC(C)c1c(-c2ccccc2)nc2c(C#N)c[nH]n2c1=O + NC1CC1c1ccc(-c2cccc(O)c2)cc1
- IC50 [1]: > 10000 nM
- IC50 [2]: > 10000 nM
- IC50 [3]: > 10000 nM
- IC50 [4]: > 10000 nM
- IC50 [5]: > 10000 nM
- viability, T/C [6]: 110%
- viability, T/C [7]: 112%
- viability, T/C [8]: 131%
- viability, T/C [9]: 105%
- viability, T/C (second compound 0.1 µM, first compound 3.16 µM): 113%
- viability, T/C (second compound 0.1 µM, first compound 10 µM): 109%
- viability, T/C [10]: 104%
- viability, T/C [11]: 107%
- viability, T/C [12]: 134%
- viability, T/C [13]: 100%
- viability, T/C (second compound 0.316 µM, first compound 3.16 µM): 115%
- viability, T/C (second compound 0.316 µM, first compound 10 µM): 102%
- viability, T/C [14]: 110%
- viability, T/C [15]: 117%
- viability, T/C [16]: 108%
- viability, T/C [17]: 116%
- viability, T/C (second compound 1 µM, first compound 3.16 µM): 108%
- viability, T/C (second compound 1 µM, first compound 10 µM): 114%
- viability, T/C [18]: 106%
- viability, T/C [19]: 108%
- viability, T/C [20]: 114%
- viability, T/C [21]: 111%
- viability, T/C (second compound 3.16 µM, first compound 3.16 µM): 105%
- viability, T/C (second compound 3.16 µM, first compound 10 µM): 124%
- viability, T/C [22]: 130%
- viability, T/C [23]: 105%
- viability, T/C [24]: 116%
- viability, T/C [25]: 102%
- viability, T/C (second compound 10 µM, first compound 3.16 µM): 106%
- viability, T/C (second compound 10 µM, first compound 10 µM): 109%

SMILES: CC1(C)CCC(CN2CCN(c3ccc(C(=O)NS(=O)(=O)c4ccc(NCC5CCOCC5)c([N+](=O)[O-])c4)c(Oc4cnc5[nH]ccc5c4)c3)CC2)=C(c2ccc(Cl)cc2)C1
- viability, T/C (compound 0.0316 µM): 90.8% and 100%
- viability, T/C (compound 0.1 µM): 108%
- viability, T/C (compound 0.316 µM): 104% and 109%
- viability, T/C (compound 1 µM): 113% and 111%
- viability, T/C (compound 3.16 µM): 128% and 106%
- viability, T/C (compound 10 µM): 120% and 122%
- IC50 (curve of compound): > 10000 nM

SMILES: Cn1ncnc1C1c2n[nH]c(=O)c3cc(F)cc(c23)NC1c1ccc(F)cc1 (configuration not stated)
- viability, T/C (compound 0.000316 µM): 88.5% and 99.7%
- viability, T/C (compound 0.001 µM): 100% and 110%
- viability, T/C (compound 0.00316 µM): 90.2% and 98.6%
- viability, T/C (compound 0.01 µM): 95.9% and 90.8%
- viability, T/C (compound 0.0316 µM): 93.7% and 92.8%
- viability, T/C (compound 0.1 µM): 91.4% and 84.3%
- IC50 (curve of compound): > 100 nM

SMILES: O=C(C=Cc1cccc(S(=O)(=O)Nc2ccccc2)c1)NO + NC1CC1c1ccc(-c2cccc(O)c2)cc1
- IC50 [1]: 860 nM
- IC50 [2]: 1010 nM
- IC50 [3]: 1550 nM
- IC50 [4]: 915 nM
- IC50 [5]: 1380 nM
- viability, T/C (second compound 0.1 µM, first compound 0.00949 µM): 107%
- viability, T/C (second compound 0.1 µM, first compound 0.03 µM): 98.5%
- viability, T/C (second compound 0.1 µM, first compound 0.0949 µM): 93%
- viability, T/C (second compound 0.1 µM, first compound 0.3 µM): 67.8%
- viability, T/C (second compound 0.1 µM, first compound 0.949 µM): 49.7%
- viability, T/C (second compound 0.1 µM, first compound 3 µM): 28.5%
- viability, T/C (second compound 0.316 µM, first compound 0.00949 µM): 102%
- viability, T/C (second compound 0.316 µM, first compound 0.03 µM): 93.2%
- viability, T/C (second compound 0.316 µM, first compound 0.0949 µM): 88%
- viability, T/C (second compound 0.316 µM, first compound 0.3 µM): 64.9%
- viability, T/C (second compound 0.316 µM, first compound 0.949 µM): 53.1%
- viability, T/C (second compound 0.316 µM, first compound 3 µM): 34%
- viability, T/C (second compound 1 µM, first compound 0.00949 µM): 98.7%
- viability, T/C (second compound 1 µM, first compound 0.03 µM): 99.3%
- viability, T/C (second compound 1 µM, first compound 0.0949 µM): 84.2%
- viability, T/C (second compound 1 µM, first compound 0.3 µM): 84.1%
- viability, T/C (second compound 1 µM, first compound 0.949 µM): 58.8%
- viability, T/C (second compound 1 µM, first compound 3 µM): 35.9%
- viability, T/C (second compound 3.16 µM, first compound 0.00949 µM): 98.5%
- viability, T/C (second compound 3.16 µM, first compound 0.03 µM): 88.1%
- viability, T/C (second compound 3.16 µM, first compound 0.0949 µM): 90.8%
- viability, T/C (second compound 3.16 µM, first compound 0.3 µM): 69%
- viability, T/C (second compound 3.16 µM, first compound 0.949 µM): 50.2%
- viability, T/C (second compound 3.16 µM, first compound 3 µM): 24.1%
- viability, T/C (second compound 10 µM, first compound 0.00949 µM): 98.9%
- viability, T/C (second compound 10 µM, first compound 0.03 µM): 97%
- viability, T/C (second compound 10 µM, first compound 0.0949 µM): 87.8%
- viability, T/C (second compound 10 µM, first compound 0.3 µM): 81.4%
- viability, T/C (second compound 10 µM, first compound 0.949 µM): 56.6%
- viability, T/C (second compound 10 µM, first compound 3 µM): 33.9%

SMILES: O=C(C=Cc1cccc(S(=O)(=O)Nc2ccccc2)c1)NO
- viability, T/C (compound 0.00949 µM): 89.9% and 92.2%
- viability, T/C (compound 0.03 µM): 83.1% and 89.3%
- viability, T/C (compound 0.0949 µM): 76.4% and 75%
- viability, T/C (compound 0.3 µM): 66.4% and 65%
- viability, T/C (compound 0.949 µM): 55.4% and 51.6%
- viability, T/C (compound 3 µM): 43.6% and 35.7%
- IC50 (curve of compound): 1610 nM and 1010 nM

SMILES: CC[C@@]1(O)C(=O)OCc2c1cc1n(c2=O)Cc2cc3c(CN(C)C)c(O)ccc3nc2-1
- viability, T/C (compound 0.000316 µM): 103% and 92.9%
- viability, T/C (compound 0.001 µM): 104% and 83.4%
- viability, T/C (compound 0.00316 µM): 96.5% and 72.1%
- viability, T/C (compound 0.01 µM): 86.4% and 76.7%
- viability, T/C (compound 0.0316 µM): 75.1% and 60.3%
- viability, T/C (compound 0.1 µM): 63.7% and 57.8%
- IC50 (curve of compound): > 100 nM

SMILES: CC(C)CC(NC(=O)C(Cc1ccccc1)NC(=O)c1cnccn1)B(O)O (configuration not stated)
- viability, T/C (compound 0.000316 µM): 102% and 104%
- viability, T/C (compound 0.001 µM): 93.9% and 105%
- viability, T/C (compound 0.00316 µM): 106% and 94.2%
- viability, T/C (compound 0.01 µM): 31% and 40%
- viability, T/C (compound 0.0316 µM): 26.9% and 31.4%
- viability, T/C (compound 0.1 µM): 24.4% and 27.6%
- IC50 (curve of compound): 7.31 nM and 8.09 nM

SMILES: CCc1c2c(nc3ccc(O)cc13)-c1cc3c(c(=O)n1C2)COC(=O)[C@]3(O)CC
- viability, T/C (compound 0.000949 µM): 88.1% and 71.3%
- viability, T/C (compound 0.003 µM): 68% and 54.2%
- viability, T/C (compound 0.00949 µM): 61.9% and 44.5%
- viability, T/C (compound 0.03 µM): 40.2% and 45.4%
- viability, T/C (compound 0.0949 µM): 45.4% and 44.3%
- viability, T/C (compound 0.3 µM): 43.2% and 39.3%
- IC50 (curve of compound): 20.7 nM and 5.36 nM

SMILES: CC1COCCN1c1cc(-c2ccnn2C)c2ccnc(-c3ccn[nH]3)c2n1 (configuration not stated) + NC1CCC(NC2CC2c2ccccc2)CC1
- IC50 [1]: > 1000 nM
- IC50 [2]: > 1000 nM
- IC50 [3]: > 1000 nM
- IC50 [4]: > 1000 nM
- IC50 [5]: > 1000 nM
- viability, T/C (second compound 0.1 µM, first compound 0.00316 µM): 111%
- viability, T/C (second compound 0.1 µM, first compound 0.01 µM): 109%
- viability, T/C [6]: 107%
- viability, T/C [7]: 92.6%
- viability, T/C [8]: 81.6%
- viability, T/C [9]: 64%
- viability, T/C (second compound 0.316 µM, first compound 0.00316 µM): 126%
- viability, T/C (second compound 0.316 µM, first compound 0.01 µM): 110%
- viability, T/C [10]: 114%
- viability, T/C [11]: 87.1%
- viability, T/C [12]: 83%
- viability, T/C [13]: 62.7%
- viability, T/C (second compound 1 µM, first compound 0.00316 µM): 109%
- viability, T/C (second compound 1 µM, first compound 0.01 µM): 128%
- viability, T/C [14]: 118%
- viability, T/C [15]: 98%
- viability, T/C [16]: 90.2%
- viability, T/C [17]: 59.5%
- viability, T/C (second compound 3.16 µM, first compound 0.00316 µM): 122%
- viability, T/C (second compound 3.16 µM, first compound 0.01 µM): 138%
- viability, T/C [18]: 110%
- viability, T/C [19]: 101%
- viability, T/C [20]: 84.5%
- viability, T/C [21]: 76.1%
- viability, T/C (second compound 10 µM, first compound 0.00316 µM): 131%
- viability, T/C (second compound 10 µM, first compound 0.01 µM): 117%
- viability, T/C [22]: 129%
- viability, T/C [23]: 105%
- viability, T/C [24]: 88.9%
- viability, T/C [25]: 71.7%
